Experimental data reported in patent EP4699622A1, “COMBINATION OF ANTIBODY-DRUG CONJUGATE AND OTHER MEDICINE” (Daiichi Sankyo Company, Limited, priority 2023, dated 2024).
Like-named read-outs stand apart in the source and are kept apart here.

Tests used:
[1] = tested on: CD37-positive human chronic lymphocytic leukemia cell line JVM-13; experiment: Antitumor effect - (4): JVM-13 subcutaneous xenograft; settings: JVM-13 xenograft; for TGI (%): Day 35, grouping Day 14, ADC (1) 0.3 mg/kg i.v. once, rituximab 10 mg/kg i.v. once, bendamustine 12.5 mg/kg i.p. day of grouping and next day, venetoclax 100 mg/kg oral every day, ibrutinib 200 mg/kg oral every day; for CR (%) on final day of observation / Change from baseline (%): ADC (1) 0.3 mg/kg i.v., rituximab 10 mg/kg i.v., bendamustine 12.5 mg/kg i.p. x2, venetoclax 100 mg/kg oral daily, ibrutinib 200 mg/kg oral daily; for Change from baseline (%): tumor volume on Day 35 vs Day 14 baseline
[2] = tested on: CD37-positive human chronic lymphocytic leukemia cell line JVM-13; experiment: Cell growth inhibition by combination with BTK inhibitors (Celltiter-Glo 2.0); type: cell-based; settings: JVM13, 144 h, read-out: D2 (50% cell growth inhibition concentration, BTK inhibitor alone)
Method: (§1) During the culture period, the cells were cultured under conditions of 37°C and 5% CO2 in all the cases. The cells thus cultured for 6 days were reacted using Celltiter-Glo 2.0 Cell Viability Assay (Promega Corp,) in accordance with the attached manual, followed by the measurement of the amount of luminescence from each well using a plate reader (Envision 2105 XCite multimode plate reader, PerkinElmer, Inc.). […] Cell growth inhibition rate (%) = (T/C) × 100 [formula]
(§2) From the calculated 50% cell growth inhibition concentrations (anti-CD37 antibody-drug conjugate (1) alone: D1, each BTK inhibitor alone: D2, anti-CD37 antibody-drug conjugate (1) in the combination: d1, each BTK inhibitor drug in the combination: d2), a combination index (CI) was calculated according to the following formula, and assessed as a synergistic effect with CI < 1, an additive effect with CI = 1, and an antagonizing effect with CI > 1 (see Adv. Enzyme Regul. 1984, P. 2227-55) . CI = (d1/D1) + (d2/D2) [formula]

[3] = tested on: CD37-positive human chronic lymphocytic leukemia cell line JVM-3; experiment: as above; type: cell-based; settings: read-out: D2 (50% cell growth inhibition concentration, BTK inhibitor alone)
Method: as §1, §2

[4] = tested on: CD37-positive human chronic lymphocytic leukemia cell line JVM-2; experiment: as above; type: cell-based; settings: read-out: D2 (50% cell growth inhibition concentration, BTK inhibitor alone)
Method: as §1, §2

SMILES	TGI (%) [1] [%]	CR (%) on final day of observation [1] [%]	Change from baseline (%) [1] [%]	IC50 [2] [µM]	IC50 ([3]; JVM-3, 144 h) [µM]	IC50 ([4]; JVM-2, 144 h) [µM]	IC50 ([2]; JVM-13, 6 days culture) [µM]	IC50 ([3]; 144 h, JVM-3, 6 days culture) [µM]	IC50 ([4]; 144 h, JVM-2, 6 days culture) [µM]
C=CC(=O)N1CCC[C@@H](n2nc(-c3ccc(Oc4ccccc4)cc3)c3c(N)ncnc32)C1 [Ibrutinib, ibrutinib]	-12	0	776.7	0.58	0.27	1.19	–	–	–
CC#CC(=O)N1CCC[C@H]1c1nc(-c2ccc(C(=O)Nc3ccccn3)cc2)c2c(N)nccn12 [Acalabrutinib, acalabrutinib]	–	–	–	–	–	–	7.15	16.6	25.8
C=CC(=O)N1CCC([C@@H]2CCNc3c(C(N)=O)c(-c4ccc(Oc5ccccc5)cc4)nn32)CC1 [Zanubrutinib, zanubrutinib]	–	–	–	–	–	–	2.83	17.9	6.86
CC1(C)CCC(CN2CCN(c3ccc(C(=O)NS(=O)(=O)c4ccc(NCC5CCOCC5)c([N+](=O)[O-])c4)c(Oc4cnc5[nH]ccc5c4)c3)CC2)=C(c2ccc(Cl)cc2)C1 [Venetoclax, venetoclax]	25	0	490.9	–	–	–	–	–	–
